# Assay results taken from US10660933B2, “Compositions and methods for inhibition of bacterial infections in human endocervix” (priority 2015, dated 2020).
# What was measured:
# [1] = test system: Neisseria gonorrhoeae MS11ΔOpa; test: Ng subepithelial penetration in human endocervical tissue explants (3D-CFM); type: cell-based; settings: MS11ΔOpa, 24 h; ML-7 10 μM or PIK 100 μM; 27% without inhibitor
# Method: Human endocervical tissue explants. The tissue explants were cultured as previously described. Endocervical tissues were obtained from patients undergoing voluntary hysterectomies and received within 24 h post-surgery. Samples were cut into ˜2.5 cm (L)×0.6 cm (W)×0.3 cm (H) pieces, incubated in CMRL-1066 (GIBCO, Gaithersburg, Md.) plus antibiotics for 24 h, and then switched to antibiotic-free media for 24 h.
# Immunofluorescence analysis of human endocervical tissue explants. Individual endocervical tissue pieces were incubated with Ng at a MOI of ˜10 (based on the average number of endocervical epithelial cells in endocervical tissue pieces) in the presence or absence of the MLCK inhibitor ML-7 (10 μM, EMD Millipore) and PIK (100 μM) (54) on transwells for 24 h. Unassociated Ng were removed by extensive washes at 6 and 12 h. The tissue was fixed, embedded in gelatin, cryopreserved, sectioned crossing the apical and basolateral surfaces of the epithelium, stained for ZO1 (BD Bioscience), pMLC (Cell Signaling Technology, Beverly, Mass.), and Ng (51) by specific antibodies, and nuclei by DAPI (Life Technologies, Carlsbad, Calif.), and analyzed using CFM (Zeiss LSM 710, Carl Zeiss Microscopy LLC, Oberkochen, Germany). […]
# To quantify epithelial exfoliation, the number of Ng associated cells localized on the top of the epithelial monolayer (exfoliated) and the total number of Ng associated epithelial cells was counted by visual inspection in each randomly acquired image, to determine the percentage of exfoliated cells. To estimate the level of Ng penetration into the subepithelium, the number of non-exfoliated epithelial cells (in clearly visible epithelial monolayers) with basal Ng staining and the total number of Ng associated epithelial cells were visually counted to calculate the percentage of infected epithelial cells with Ng penetration into the basolateral side. […] To quantify the redistribution of pMLC, the fluorescence intensity ratios (FIR) of pMLC staining at the apical to lateral in individual epithelial cells were determined using average FI as previously described.
# [2] = test system: phosphorylated myosin light chain (pMLC); test: pMLC redistribution in Ng-inoculated human endocervical tissue explants; type: cell-based; settings: MS11ΔOpa-inoculated endocervical tissue explants, 24 h
# Method: To explore the possibility of that Ng induced NMII redistribution occurs in vivo, we incubated human endocervical tissue explants with MS11ΔOpa for 24 h. Cryo-sections of the endocervical tissue were stained for pMLC, Ng and nuclei. In addition to its apical junction localization, pMLC was concentrated at the basal surface of the endocervical epithelial cells contacting with the basal membrane (FIG. 6A, upper panels). When incubated with MS11ΔOpa, there was a redistribution of pMLC from the basal to apical surface, resulting in a significant higher apical:lateral FIR in Ng inoculated tissue explants than that in no Ng control (FIG. 6), similar to what we observed in polarized T84 (FIGS. 5A and 5B) and HEC-1-B cells (FIG. 10). Furthermore, pMLC at the apical surface of the endocervical epithelial cells also concentrated at Ng adherent sites (FIG. 6A, second row, white arrows), but not at the membrane of cells neighboring exfoliating cells (FIG. 6A, second row, orange arrows). These observations confirm that Ng increase the relative amount of activated NMII at the apical surface of the endocervical epithelial cells in human tissue explants. […]
# Immunofluorescence analysis of human endocervical tissue explants. […] The tissue was fixed, embedded in gelatin, cryopreserved, sectioned crossing the apical and basolateral surfaces of the epithelium, stained for ZO1 (BD Bioscience), pMLC (Cell Signaling Technology, Beverly, Mass.), and Ng (51) by specific antibodies, and nuclei by DAPI (Life Technologies, Carlsbad, Calif.), and analyzed using CFM (Zeiss LSM 710, Carl Zeiss Microscopy LLC, Oberkochen, Germany). […]
# To quantify epithelial exfoliation, the number of Ng associated cells localized on the top of the epithelial monolayer (exfoliated) and the total number of Ng associated epithelial cells was counted by visual inspection in each randomly acquired image, to determine the percentage of exfoliated cells. To estimate the level of Ng penetration into the subepithelium, the number of non-exfoliated epithelial cells (in clearly visible epithelial monolayers) with basal Ng staining and the total number of Ng associated epithelial cells were visually counted to calculate the percentage of infected epithelial cells with Ng penetration into the basolateral side. To evaluate the disruption of the apical junction, the number of Ng associated epithelial cells that lost continuously apical staining of the junctional protein ZO1 and the total number of Ng associated epithelial cells were visually counted to calculate the percentage of Ng associated epithelial cells with apical junction disassembly. […]
smiles,measurement,setting,value
O=S(=O)(c1cccc2c(I)cccc12)N1CCCNCC1 [ML-7],percentage of epithelial cells with basally associated Ng,[1],7.1%
same,pMLC accumulation at Ng adherent sites,[2],significantly reduced
same,apical:lateral FIR of pMLC,"[2]; ML-7 10 μM, PIK 100 μM",significantly reduced
